Test results as given in patent US20240059671A1, “TYROSINE KINASE 2 (TYK2) DEGRADATION COMPOUNDS AND METHODS OF USE” (CULLGEN (SHANGHAI), INC., priority 2020, published 2024).

Target: TYK2 (Homo sapiens, UniProt P29597)
Experiment: TYK2 protein degradation in MOLT-4 cells by immunoblotting
Assay type: cell-based
Parameters: endogenous in cells; host or cells: MOLT-4
Conditions: MOLT-4 cells, 24 hours
Method: MOLT-4 cells were treated with compounds at 0.5 and 5 μM concentrations for 24 hours.
MOLT-4 cells were treated with CPD-038, CPD-039, and CPD-040 at 0.04, 0.2, 1, and 5 μM concentrations for 24 hours.
MOLT-4 or NOMO-1 cells were cultured at 37° C. with 5% CO2 in RPMI 1640 Medium supplemented with 10% fetal bovine serum. Cells were authenticated using the short tandem repeat (STR) assays. Mycoplasma test results were negative.
Cultured cells were washed with cold PBS once and lysed in cold RIPA buffer supplemented with protease inhibitors and phosphatase inhibitors (Beyotime Biotechnology). The solutions were then incubated at 4° C. for 30 minutes with gentle agitation to fully lyse cells. Cell lysates were centrifuged at 13,000 rpm for 10 minutes at 4° C. and pellets were discarded. Total protein concentrations in the lysates were determined by BCA assays (Beyotime Biotechnology). Cell lysates were mixed with Laemmli loading buffer to 1× and heated at 99° C. for 5 min. Proteins were resolved on SDS-PAGE and visualized by chemiluminescence. Images were taken by a ChemiDoc MP Imaging system (Bio-Rad). Protein bands were quantitated using the accompanied software provided by Bio-Rad.
The percentage of TYK2 protein degradation of each compound at 0.5 and 5 μM determined in MOLT-4 cells as described in Methods.

TYK2, sequence (P29597 whole entry): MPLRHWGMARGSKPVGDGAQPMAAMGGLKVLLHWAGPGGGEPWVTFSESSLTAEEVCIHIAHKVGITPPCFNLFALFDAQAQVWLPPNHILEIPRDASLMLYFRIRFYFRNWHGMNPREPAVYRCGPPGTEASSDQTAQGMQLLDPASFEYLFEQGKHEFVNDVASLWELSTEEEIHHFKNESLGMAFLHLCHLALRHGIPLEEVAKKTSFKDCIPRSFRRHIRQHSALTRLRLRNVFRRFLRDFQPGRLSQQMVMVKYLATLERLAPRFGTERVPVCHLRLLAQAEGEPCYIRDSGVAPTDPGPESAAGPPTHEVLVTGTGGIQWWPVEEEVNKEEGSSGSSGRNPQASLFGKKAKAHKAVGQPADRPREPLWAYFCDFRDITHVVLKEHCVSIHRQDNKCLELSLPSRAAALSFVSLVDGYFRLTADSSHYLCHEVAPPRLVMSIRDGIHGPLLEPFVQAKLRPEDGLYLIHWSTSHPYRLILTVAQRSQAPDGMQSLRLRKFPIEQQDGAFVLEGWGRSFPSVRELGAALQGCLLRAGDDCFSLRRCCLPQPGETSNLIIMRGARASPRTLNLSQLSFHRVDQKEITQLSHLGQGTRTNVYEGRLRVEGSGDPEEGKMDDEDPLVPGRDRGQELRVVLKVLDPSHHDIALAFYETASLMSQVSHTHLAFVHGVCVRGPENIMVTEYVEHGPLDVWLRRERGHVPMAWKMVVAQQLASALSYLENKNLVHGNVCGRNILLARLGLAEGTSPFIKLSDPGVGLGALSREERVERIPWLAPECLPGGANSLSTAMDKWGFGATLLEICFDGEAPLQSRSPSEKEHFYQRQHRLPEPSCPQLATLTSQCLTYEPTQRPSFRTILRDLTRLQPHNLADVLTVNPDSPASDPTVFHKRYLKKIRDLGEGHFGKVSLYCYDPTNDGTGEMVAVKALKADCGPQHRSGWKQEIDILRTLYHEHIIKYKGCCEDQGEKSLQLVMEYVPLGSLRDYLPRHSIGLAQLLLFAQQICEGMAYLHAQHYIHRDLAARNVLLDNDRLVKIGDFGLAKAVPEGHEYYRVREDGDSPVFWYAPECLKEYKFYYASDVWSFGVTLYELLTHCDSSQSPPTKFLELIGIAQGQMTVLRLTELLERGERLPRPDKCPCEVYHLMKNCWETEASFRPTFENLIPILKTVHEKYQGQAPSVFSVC

SMILES	TYK2 Degradation (0.5 μM) [%]	TYK2 Degradation (5 μM) [%]	TYK2 Degradation (MOLT-4, 0.5 μM) (0.5 μM)	TYK2 Degradation (MOLT-4, 5 μM) (5 μM)
CNC(=O)c1nnc(NC(=O)C2CC2)cc1Nc1cccc(-c2ncn(CCNC(=O)CCCCCNc3ccc4c(c3)C(=O)N(C3CCC(=O)NC3=O)C4=O)n2)c1OC (stereo not shown) [CPD-023, 6-(Cyclopropanecarboxamido)-4-((3-(1-(2-(6-((2-(2,6-dioxopiperidin-3-yl)-1,3-dioxoisoindolin-5-yl)amino)hexanamido)ethyl)-1H-1,2,4-triazol-3-yl)-2-methoxyphenyl)amino)-N-methylpyridazine-3-carboxamide]	≤20	≤20		
CNC(=O)c1nnc(NC(=O)CNC(=O)CCCCNc2cccc3c2C(=O)N(C2CCC(=O)NC2=O)C3=O)cc1Nc1cccc(-c2ncn(C)n2)c1OC (stereo not shown) [CPD-045, 6-(2-(5-((2-(2,6-Dioxopiperidin-3-yl)-1,3-dioxoisoindolin-4-yl)amino)pentanamido)acetamido)-4-((2-methoxy-3-(1-methyl-1H-1,2,4-triazol-3-yl)phenyl)amino)-N-methylpyridazine-3-carboxamide]	40	≤20		
CNC(=O)c1nnc(NC(=O)CNC(=O)CCCCCCNc2cccc3c2C(=O)N(C2CCC(=O)NC2=O)C3=O)cc1Nc1cccc(-c2ncn(C)n2)c1OC (stereo not shown) [CPD-047, 6-(2-(7-((2-(2,6-dioxopiperidin-3-yl)-1,3-dioxoisoindolin-4-yl)amino)heptanamido)acetamido)-4-((2-methoxy-3-(1-methyl-H-1,2,4-triazol-3-yl)phenyl)amino)-N-methylpyridazine-3-carboxamide]	60	≤20		
CNC(=O)c1nnc(NC(=O)CNC(=O)CCOCCC(=O)N[C@H](C(=O)N2C[C@H](O)C[C@H]2C(=O)NCc2ccc(-c3scnc3C)cc2)C(C)(C)C)cc1Nc1cccc(-c2ncn(C)n2)c1OC [CPD-026, 6-(2-(3-(3-(((S)-1-((2S,4R)-4-Hydroxy-2-((4-(4-methylthiazol-5-yl)benzyl)carbamoyl)pyrrolidin-1-yl)-3,3-dimethyl-1-oxobutan-2-yl)amino)-3-oxopropoxy)propanamido)acetamido)-4-((2-methoxy-3-(1-methyl-1H-1,2,4-triazol-3-yl)phenyl)amino)-N-methylpyridazine-3-carboxamide]	≤20	≤20		
CNC(=O)c1nnc(NC(=O)CNC(=O)CCOCCOCCNc2cccc3c2C(=O)N(C2CCC(=O)NC2=O)C3=O)cc1Nc1cccc(-c2ncn(C)n2)c1OC (stereo not shown) [CPD-050, 6-(2-(3-(2-(2-((2-(2,6-Dioxopiperidin-3-yl)-1,3-dioxoisoindolin-4-yl)amino)ethoxy)ethoxy)propanamido)acetamido)-4-((2-methoxy-3-(1-methyl-1H-1,2,4-triazol-3-yl)phenyl)amino)-N-methylpyridazine-3-carboxamide]	≤20	≤20		
CNC(=O)c1nnc(NC(=O)C2CC2)cc1Nc1cccc(-c2ncn(CCNC(=O)CCOCCOCCOCCNc3cccc4c3C(=O)N(C3CCC(=O)NC3=O)C4=O)n2)c1OC (stereo not shown) [CPD-010, 6-(Cyclopropanecarboxamido)-4-((3-(1-(1-((2-(2,6-dioxopiperidin-3-yl)-1,3-dioxoisoindolin-4-yl)amino)-12-oxo-3,6,9-trioxa-13-azapentadecan-15-yl)-1H-1,2,4-triazol-3-yl)-2-methoxyphenyl)amino)-N-methylpyridazine-3-carboxamide]	≤20			
CNC(=O)c1nnc(NC(=O)C2CC2)cc1Nc1cccc(-c2ncn(CCNC(=O)CCCNc3ccc4c(c3)C(=O)N(C3CCC(=O)NC3=O)C4=O)n2)c1OC (stereo not shown) [CPD-015, 6-(Cyclopropanecarboxamido)-4-((3-(1-(2-(4-((2-(2,6-dioxopiperidin-3-yl)-1,3-dioxoisoindolin-5-yl)amino)butanamido)ethyl)-1H-1,2,4-triazol-3-yl)-2-methoxyphenyl)amino)-N-methylpyridazine-3-carboxamide]	≤20			
CNC(=O)c1nnc(NC(=O)CNC(=O)CCOCCOCCC(=O)N[C@H](C(=O)N2C[C@H](O)C[C@H]2C(=O)NCc2ccc(-c3scnc3C)cc2)C(C)(C)C)cc1Nc1cccc(-c2ncn(C)n2)c1OC [CPD-028, 6-((S)-15-((2S,4R)-4-Hydroxy-2-((4-(4-methylthiazol-5-yl)benzyl)carbamoyl)pyrrolidine-1-carbonyl)-16,16-dimethyl-4,13-dioxo-7,10-dioxa-3,14-diazaheptadecanamido)-4-((2-methoxy-3-(1-methyl-1H-1,2,4-triazol-3-yl)phenyl)amino)-N-methylpyridazine-3-carboxamide]	≤20	≤20		

The remaining lines, values ahead:

TYK2 Degradation (0.5 μM) [%]	TYK2 Degradation (5 μM) [%]	TYK2 Degradation (MOLT-4, 0.5 μM) (0.5 μM)	TYK2 Degradation (MOLT-4, 5 μM) (5 μM)	SMILES
≤20	≤20			CNC(=O)c1nnc(NC(=O)CNC(=O)CNc2ccc3c(c2)C(=O)N(C2CCC(=O)NC2=O)C3=O)cc1Nc1cccc(-c2ncn(C)n2)c1OC (stereo not shown) [CPD-054, 6-(2-(2-((2-(2,6-Dioxopiperidin-3-yl)-1,3-dioxoisoindolin-5-yl)amino)acetamido)acetamido)-4-((2-methoxy-3-(1-methyl-1H-1,2,4-triazol-3-yl)phenyl)amino)-N-methylpyridazine-3-carboxamide]
		A (A: ≥60% TYK2 degradation)	A (A: ≥60% TYK2 degradation)	CNC(=O)c1nnc(NC(=O)CNC(=O)CCCCCCCC(=O)N[C@H](C(=O)N2C[C@H](O)C[C@H]2C(=O)N[C@@H](C)c2ccc(-c3scnc3C)cc2)C(C)(C)C)cc1Nc1cccc(-c2ncn(C)n2)c1OC [CPD-084, N1-((S)-1-((2S,4R)-4-hydroxy-2-(((S)-1-(4-(4-methylthiazol-5-yl)phenyl)ethyl)carbamoyl)pyrrolidin-1-yl)-3,3-dimethyl-1-oxobutan-2-yl)-N9-(2-((5-((2-methoxy-3-(1-methyl-1H-1,2,4-triazol-3-yl)phenyl)amino)-6-(methylcarbamoyl)pyridazin-3-yl)amino)-2-oxoethyl)nonanediamide]
≤20	30			CNC(=O)c1nnc(NC(=O)CNC(=O)CCOCCOCCOCCNc2ccc3c(c2)C(=O)N(C2CCC(=O)NC2=O)C3=O)cc1Nc1cccc(-c2ncn(C)n2)c1OC (stereo not shown) [CPD-063, 6-(1-((2-(2,6-Dioxopiperidin-3-yl)-1,3-dioxoisoindolin-5-yl)amino)-12-oxo-3,6,9-trioxa-13-azapentadecan-15-amido)-4-((2-methoxy-3-(1-methyl-1H-1,2,4-triazol-3-yl)phenyl)amino)-N-methylpyridazine-3-carboxamide]
≤20	≤20			CNC(=O)c1nnc(NC(=O)CNC(=O)CCCCCCNc2ccc3c(c2)C(=O)N(C2CCC(=O)NC2=O)C3=O)cc1Nc1cccc(-c2ncn(C)n2)c1OC (stereo not shown) [CPD-059, 6-(2-(7-((2-(2,6-Dioxopiperidin-3-yl)-1,3-dioxoisoindolin-5-yl)amino)heptanamido)acetamido)-4-((2-methoxy-3-(1-methyl-1H-1,2,4-triazol-3-yl)phenyl)amino)-N-methylpyridazine-3-carboxamide]
